Laboratory results from patent publication US9204640B2, “2-acyloxy-pyrrolin-4-ones” (BAYER INTELLECTUAL PROPERTY GMBH, priority 2011, dated 2015).

Tests used:
Type in all cases: in vivo
Myzus persicae = assay: Myzus test (MYZUPE spray treatment); details: application rate 500 g/ha, after 5 days, Chinese cabbage leaf discs
Experimental: Myzus Test (MYZUPE Spray Treatment) [table] To produce a suitable preparation of active compound, 1 part by weight of active compound is mixed with the stated amount of solvent and emulsifier, and the concentrate is diluted with emulsifier-containing water to the desired concentration. Discs of Chinese cabbage (Brassica pekinensis) infected by all stages of the green peach aphid (Myzus persicae) are sprayed with an active compound preparation of the desired concentration. After 5 days, the effect in % is determined 100% means that all of the aphids have been killed; 0% means that none of the aphids have been killed. Myzus Test (MYZUPE Spray Treatment) To produce a suitable preparation of active compound, 1 part by weight of active compound is mixed with the stated amount of solvent and emulsifier, and the concentrate is diluted with emulsifier-containing water to the desired concentration. Discs of Chinese cabbage (Brassica pekinensis) infected by all stages of the green peach aphid (Myzus persicae) are sprayed with an active compound preparation of the desired concentration. After the desired period of time, the activity in % is determined. 100% means that all of the aphids have been killed; 0% means that none of the aphids have been killed.

Lolium multiflorum = assay: Herbicidal post-emergence action, LOLMU; details: 320 g/ha
Experimental: (§1) 2. Herbicidal Post-Emergence Action
(§2) • Seeds of monocotyledonous and dicotyledonous weed and crop plants are placed in sandy loam in wood-fiber pots, covered with soil and cultivated in a greenhouse under good growth conditions. 2 to 3 weeks after sowing, the test plants are treated at the one-leaf stage. The test compounds, formulated as wettable powders (WP), are then, with a water application rate of 600 l/ha (converted), with 0.2% of wetting agent added, sprayed at various dosages onto the green parts of the plants. After the test plants have been kept in the greenhouse under optimum growth conditions for about 3 weeks, the activity of the preparations is rated visually in comparison to untreated controls (herbicidal activity in percent: 100% activity=the plants have died, 0% activity=like control plants). • In addition to the compounds mentioned above, the following compounds show an activity of 90-100% against Alopecurus myosuroides, Avena fatua, Digitaria sanguinalis, Echinocloa crus-galli, Lolium multiflorum, Setaria viridis and Sorghum halapense when applied by the post-emergence method at 320 g/ha: I-a-2, I-a-4, I-a-5, I-a-7, I-a-9, I-a-10, I-a-11, I-a-12, I-a-13, I-a-15. • In addition to the compounds mentioned above, the following compounds show an activity of 90-100% against Alopecurus myosuroides, Avena fatua, Echinocloa crus-galli, Lolium multiflorum and Setaria viridis when applied by the post-emergence method at 80 g/ha: I-a-1, I-b-2.
(§3) • Seeds of monocotyledonous and dicotyledonous weed plants and crop plants are placed in wood-fiber pots in sandy loam and covered with soil. The test compounds, formulated in the form of wettable powders (WP) or emulsion concentrates (EC), are then, as an aqueous suspension with a water application rate of 600-800 l/ha (converted), with 0.1-0.2% of wetting agent added, applied at various dosages to the surface of the covering soil. • After the treatment, the pots are placed in a greenhouse and kept under good growth conditions for the test plants. […] Herbicidal Post-Emergence Action (Post) • Seeds of monocotyledonous and dicotyledonous weed and crop plants are placed in sandy loam in wood-fiber pots, covered with soil and cultivated in a greenhouse under good growth conditions. 2-3 weeks (stages 10-13 according to the BBCH scale) after sowing, the test plants are treated at a height of 5-10 cm. The test compounds, formulated as wettable powders (WP) or emulsion concentrates (EC), are then, with a water application rate of 600-800 l/ha (converted), with 0.1-0.2% of wetting agent added, sprayed at various dosages onto the green parts of the plants.
(§4) AVEFA: Avena fatua LOLMU: Lolium multiflorum SETVI: Setaria viridis CHEAL: Chenopodium album VIOTR: Viola tricolor VERPE: Veronica persica ORYSA: Oryza sativa TRZAS: Triticum aestivum ZEAMX: Zea mays ALOMY: Alopecurus myosuroides DIGSA: Digitaria sanguinalis ECHCG: Echinocloa crus-galli SORHA: Sorghum halepense AVESA: Avena sativa AMARE: Amaranthus retroflexus SINAL: Sinapis alba STEME: Stellaria media

Setaria viridis = assay: Herbicidal post-emergence action, SETVI; details: 320 g/ha
Experimental: as §1, §2, §3, §4

Avena sativa = assay: Herbicidal post-emergence action, AVESA
From the text: as §3, with “the plants. […]” for “the plants.”

Amaranthus retroflexus = assay: Herbicidal post-emergence action, AMARE
From the text: as §3, with “the plants. […]” for “the plants.”

Sinapis alba = assay: Herbicidal post-emergence action, SINAL
From the text: as §3, with “the plants. […]” for “the plants.”

Stellaria media = assay: Herbicidal post-emergence action, STEME
From the text: as §3, with “the plants. […]” for “the plants.”

Spodoptera frugiperda = Spodoptera frugiperda test (SPODFR spray treatment); details: Spodoptera frugiperda, 168 h; 500 g/ha; 7dat
Experimental: Spodoptera Frugiperda Test (SPODFR Spray Treatment) [table] To produce a suitable preparation of active compound, 1 part by weight of active compound is mixed with the stated amount of solvent and emulsifier, and the concentrate is diluted with emulsifier-containing water to the desired concentration. Discs of corn leaves (Zea mays) are sprayed with an active compound preparation of the desired concentration and, after drying, populated with caterpillars of the armyworm (Spodoptera frugiperda). After 7 days, the effect in % is determined. 100% means that all caterpillars have been killed; 0% means that none of the caterpillars have been killed. Spodoptera Frugiperda Test (SPODFR Spray Treatment) To produce a suitable preparation of active compound, 1 part by weight of active compound is mixed with the stated amount of solvent and emulsifier, and the concentrate is diluted with emulsifier-containing water to the desired concentration. Discs of corn leaves (Zea mays) are sprayed with an active compound preparation of the desired concentration and, after drying, populated with caterpillars of the armyworm (Spodoptera frugiperda). After the desired period of time, the activity in % is determined. 100% means that all caterpillars have been killed; 0% means that none of the caterpillars have been killed.

Tetranychus urticae = assay: Tetranychus test (TETRUR spray treatment; OP-resistant in Example 10); details: Tetranychus urticae, 120 h; 20 g/ha; 5dat; OP-resistant
Experimental: Tetranychus Test (TETRUR Spray Treatment)
To produce a suitable preparation of active compound, 1 part by weight of active compound is mixed with the stated amount of solvent and emulsifier, and the concentrate is diluted with emulsifier-containing water to the desired concentration. Discs of bean leaves (Phaseolus vulgaris) which are infested by all stages of the greenhouse red spider mite (Tetranychus urticae) are sprayed with an active compound preparation of the desired concentration.
After 5 days, the effect in % is determined. 100% means that all of the spider mites have been killed; 0% means that none of the spider mites have been killed.
Tetranychus Test, OP-Resistant (TETRUR Spray Treatment)
To produce a suitable preparation of active compound, 1 part by weight of active compound is mixed with the stated amount of solvent and emulsifier, and the concentrate is diluted with emulsifier-containing water to the desired concentration.
Discs of bean leaves (Phaseolus vulgaris) which are infested by all stages of the greenhouse red spider mite (Tetranychus urticae) are sprayed with an active compound preparation of the desired concentration.
After the desired period of time, the activity in % is determined. 100% means that all of the spider mites have been killed; 0% means that none of the spider mites have been killed.

Liriomyza trifolii = Liriomyza trifolii spray test (LIRITR); details: Liriomyza trifolii, 168 h, 7dat, read-out: % Activity LIRITRI
Experimental: Liriomyza Trifolii-Spray Test ([…]) To produce a suitable preparation of active compound, 1 part by weight of active compound is mixed with the stated amount of solvent and emulsifier, and the concentrate is diluted with emulsifier-containing water to the desired concentration. If the addition of ammonium salts or/and penetrants is required, these are in each case added in a concentration of 1000 ppm to the solution of the preparations. Discs of bean leaves (Phaseolus vulgaris) which are infested by all stages of the leaf-mining fly (Liriomyza trifolii) are sprayed with an active compound preparation of the desired concentration. After the desired period of time, the activity in % is determined. 100% means that all of the leaf-mining flies have been killed; 0% means that none of the leaf-mining flies have been killed.

Bemisia tabaci = Bemisia tabaci spray test (BEMITA); details: Bemisia tabaci, 168 h, 7dat
Experimental: Bemisia Tabaci-Spray Test ([…]) To produce a suitable preparation of active compound, 1 part by weight of active compound is mixed with the stated amount of solvent and emulsifier, and the concentrate is diluted with emulsifier-containing water to the desired concentration. Discs of cotton leaves (Gossypium hirsutum) which are infested by all stages of the whitefly (Bemisia tabaci) are sprayed with an active compound preparation of the desired concentration. After the desired period of time, the activity in % is determined. 100% means that all the whiteflies have been killed; 0% means that none of the whiteflies have been killed.

In the case of CCc1cc(Cl)cc(OC)c1C1=C(OC(=O)C(C)(C)C)NC2(CCC(OC)CC2)C1=O (centres unmarked) [I-a-9], the “effect in % (aphids killed)” value (Myzus persicae) is reported as 80%, the “% Activity LOLMU” value (Lolium multiflorum) is reported as 100% and the “% Activity SETVI” value (Setaria viridis) is reported as 100%. For the same compound, the “% Activity AVESA” value (Avena sativa; 320 g/ha) was 90%, the “% Activity AMARE” value (Amaranthus retroflexus; 320 g/ha) was 40% and the “% Activity SINAL” value (Sinapis alba; 320 g/ha) was 60%. The “% Activity STEME” value (Stellaria media; 320 g/ha) was 40%.

CCOC(=O)OC1=C(c2c(C)cc(C)cc2C)C(=O)NC12CCC(COC)CC2 (centres unmarked) [I-1-c-16 known from WO 07/048545] showed an inhibition at 500 g/ha (Spodoptera frugiperda) of 67%, an inhibition at 20 g/ha (Tetranychus urticae) of 0% and an inhibition at 20 g/ha (Liriomyza trifolii) of 0%. It also gave an inhibition at 20 g/ha (Bemisia tabaci) of 27%.

With CCc1cc(Cl)cc(OC)c1C1=C(OC(=O)C(C)(C)C)C2(CCC(OC)CC2)NC1=O (centres unmarked) the inhibition at 320 g/ha (Lolium multiflorum; Lolium multiflorum, post-emergence) was 0%, the inhibition at 320 g/ha (Setaria viridis; Setaria viridis, post-emergence) was 0% and the inhibition at 320 g/ha (Avena sativa; Avena sativa, post-emergence) was 0%. For the same compound, the inhibition at 320 g/ha (Amaranthus retroflexus; Amaranthus retroflexus, post-emergence) was 0%, the inhibition at 320 g/ha (Sinapis alba; Sinapis alba, post-emergence) was 0% and the inhibition at 320 g/ha (Stellaria media; Stellaria media, post-emergence) was 0%.
